{
  "source": "patent US7662781B2",
  "about": "“Immunopotentiating agent” (ECI, Inc., priority 2005, dated 2010)",
  "molecules": {"B1": {"name": "MIP-1α: molecule of about 70 amino acids belonging to the C—C chemokine family, ligand for CCR1 and CCR5 (protein, UniProt P10147 24-92, looked up)", "C-C motif chemokine 3": "SLAADTPTACCFSYTSRQIPQNFIADYFETSSQCSKPGVIFLTKRSRQVCADPSEEWVQKYVSDLELSA"}},
  "key": {"[1]": {"tested_on": "Lewis lung carcinoma (3LL)", "test": "Lung metastasis system of intravenously injected 3LL", "type": "in vivo, C57BL/6 mice", "settings": "25 mg/mouse, twice a week", "experimental": "By using a lung metastasis system of Lewis lung carcinoma (3LL), the tumor metastasis inhibition effect of eMIP was evaluated. Female C57BL/6 mice aged 7 weeks were employed. 10^6 3LL cells were injected into each animal via the tail vein. After 25 days, the lungs were taken out, weighed and fixed with Bouin' solution. Then, cancer tissues metastasized into the lungs were counted under a stereoscopic microscope. 30 minutes after the 3LL transplantation, eMIP was injected as the first administration followed by continuous administration once a week for 4 weeks. In the system wherein the administration was initiated 7 days after the 3LL transplantation, the effect of eMIP was examined. 5Fu employed as a control was administered twice a week."}, "[2]": {"tested_on": "dendritic cell precursors", "settings": "Yoneyama 2001; Zhang 2004; cited from earlier work"}},
  "data": [
    {"molecule": "O=c1[nH]cc(F)c(=O)[nH]1", "note": "[5Fu]", "values": [
      {"measurement": "inhibition rate of metastasis into the lungs", "setting": "[1]", "result": 78, "unit": "%"}
    ]},
    {"molecule": "B1", "values": [
      {"measurement": "mobilization of dendritic cell precursors in the blood", "setting": "[2]", "result": "several ten-fold"}
    ]}
  ]
}
